Our source for the IC50 values is patent US12662491B2 (Redona Therapeutics, Inc., priority 2020, dated 2026).

Broadly, the IC50 is the concentration at which inhibition is half-maximal.

Some results are limits rather than exact numbers.

The target of the first assay is T1, Zcchc11 enzyme (Homo sapiens, UniProt Q5TAX3).
T1 construct: made in house; host or cells: HEK293 cells (Zcchc11); E. coli Rosetta II (LIN28A)
T1 sequence (Q5TAX3 212-1420): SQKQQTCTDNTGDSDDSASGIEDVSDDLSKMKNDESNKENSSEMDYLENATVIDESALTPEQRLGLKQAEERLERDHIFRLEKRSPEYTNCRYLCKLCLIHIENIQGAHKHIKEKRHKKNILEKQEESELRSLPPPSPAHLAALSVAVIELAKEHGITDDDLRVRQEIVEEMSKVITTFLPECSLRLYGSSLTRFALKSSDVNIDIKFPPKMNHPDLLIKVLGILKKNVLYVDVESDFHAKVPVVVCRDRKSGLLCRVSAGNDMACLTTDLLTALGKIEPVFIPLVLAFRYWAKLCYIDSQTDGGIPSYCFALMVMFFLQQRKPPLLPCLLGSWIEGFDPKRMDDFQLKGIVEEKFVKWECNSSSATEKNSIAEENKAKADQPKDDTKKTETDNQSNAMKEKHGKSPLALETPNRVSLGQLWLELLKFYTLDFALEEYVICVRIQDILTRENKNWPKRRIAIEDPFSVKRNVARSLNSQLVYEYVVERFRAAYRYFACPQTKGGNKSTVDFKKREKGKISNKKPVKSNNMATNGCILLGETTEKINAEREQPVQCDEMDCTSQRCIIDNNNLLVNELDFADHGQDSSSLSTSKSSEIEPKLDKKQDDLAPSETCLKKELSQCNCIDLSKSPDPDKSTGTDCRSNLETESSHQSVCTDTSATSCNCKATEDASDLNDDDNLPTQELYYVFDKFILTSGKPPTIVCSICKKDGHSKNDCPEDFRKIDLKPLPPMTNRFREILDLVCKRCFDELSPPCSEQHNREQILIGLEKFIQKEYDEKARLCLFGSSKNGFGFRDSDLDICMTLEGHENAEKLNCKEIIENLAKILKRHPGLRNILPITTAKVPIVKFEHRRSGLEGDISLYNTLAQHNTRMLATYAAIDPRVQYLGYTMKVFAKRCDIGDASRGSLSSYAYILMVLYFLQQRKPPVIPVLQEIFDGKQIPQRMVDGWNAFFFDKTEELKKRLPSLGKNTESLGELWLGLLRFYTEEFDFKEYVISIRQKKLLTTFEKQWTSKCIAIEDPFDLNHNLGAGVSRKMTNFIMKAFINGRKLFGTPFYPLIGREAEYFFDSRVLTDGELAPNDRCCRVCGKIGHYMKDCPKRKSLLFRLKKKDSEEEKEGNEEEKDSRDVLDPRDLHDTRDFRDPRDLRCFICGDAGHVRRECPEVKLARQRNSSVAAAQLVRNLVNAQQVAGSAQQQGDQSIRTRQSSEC
Put plainly: TUTase assay (Zcchc11 assay, Lin28a-dependent polyuridylation of pre-let-7). Format: biochemical. Particulars: LIN28A 10 nM, Zcchc11 0.2 nM, 5′-fluorescein pre-let-7 miRNA 2 nM, UTP 5 uM, room temperature, 30 minutes pre-incubation; read-out: Potency Lin28a-dep Z11 IC50. A digest of the protocol:
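HEK293-expressed human Zcchc11 (residues 212-1420, 0.2 nM) with 10 nM LIN28A and 2 nM 5′-fluorescein pre-let-7, preincubated 30 min at room temperature, pH 7.3. Started with 5 uM UTP; poly(U) tails quenched by 3′-rhodamine A20 probe, read kinetically. IC50 from early-rate four-parameter fit; no-UTP wells define 0%.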
Consider `COc1ccc(Cl)c(OC[C@H]2C[C@@H]3C[C@@H]3N2c2cc3c(cc2F)c(=O)c(C(=O)O)cn3-c2ccc(N3CC(N(C)C)C3)nc2)n1` [Example 74, 7-[(1S,3R,5S)-3-{[(3-chloro-6-methoxypyridin-2-yl)oxy]methyl}-2-azabicyclo[3.1.0]hexan-2-yl]-1-{6-[3-(dimethylamino)azetidin-1-yl]pyridin-3-yl}-6-fluoro-4-oxo-1,4-dihydroquinoline-3-carboxylic acid], for which the IC50 was not above 1 µM. Same read-out and setting: then `O=C(O)c1cn(-c2ncccn2)c2cc(N3CCC[C@@H]3COc3ccccn3)c(Cl)cc2c1=O` [Example 2, (R)-6-chloro-4-oxo-7-(2-((pyridin-2-yloxy)methyl)pyrrolidin-1-yl)-1-(pyrimidin-2-yl)-1,4-dihydroquinoline-3-carboxylic acid], with 1 to 10 µM. On the same count and under the same terms, in the case of `CN(C)C1CN(c2ccc(-n3cc(C(=O)O)c(=O)c4cc(Cl)c(N5CC(F)(F)C[C@@H]5COc5ncccc5Cl)nc43)cn2)C1` [Example 60, 6-chloro-7-[(2R)-2-[[(3-chloropyridin-2-yl)oxy]methyl]-4,4-difluoropyrrolidin-1-yl]-1-[6-[3-(dimethylamino)azetidin-1-yl]pyridin-3-yl]-4-oxo-1,8-naphthyridine-3-carboxylic acid] it was not above 1 µM.

Staying with this assay, now noted: Lin28a-dependent Zcchc11 (Z11) TUTase activity; read-out: Potency Lin28a-dep Z11 IC50.
With `CN(C)C1CN(c2ccc(-n3cc(C(=O)O)c(=O)c4cc(Cl)c(N5C(=O)CCCC5COc5ccccn5)cc43)cn2)C1` (stereo not shown) [Compound 324, 6-Chloro-1-[6-[3-(dimethyl-amino)azetidin-1-yl]pyridin-3-yl]-4-oxo-7-[2-oxo-6-[(pyridin-2-yloxy)methyl]piperidin-1-yl]quinoline-3-carboxylic acid], the IC50 was in the range of 10 to 50 µM. As to `COc1ccc(Cl)c(OC[C@H]2C[C@H]3C[C@H]3N2c2cc3c(cc2F)c(=O)c(C(=O)O)cn3-c2ccc(N(C)C)nc2)n1` [Compound 340, 7-[(1R,3R,5R)-3-{[(3-Chloro-6-methoxy-pyridin-2-yl)oxy]methyl}-2-azabicyclo [3.1.0]hexan-2-yl]-1-[6-(dimethyl-amino)pyridin-3-yl]-6-fluoro-4-oxoquinoline-3-carboxylic acid], the IC50 was not above 1 µM.

As for `O=C(O)c1cn(-c2ccc(O)cc2Cl)c2cc(N3CCC[C@@H]3COc3ccccn3)c(F)cc2c1=O` [Compound 152, (R)-1-(2-chloro-4-hydroxy-phenyl)-6-fluoro-4-oxo-7-(2-((pyridin-2-yloxy)methyl)pyrrolidin-1-yl)-1,4-dihydro-quinoline-3-carboxylic acid], the IC50 was in the range of 1 to 10 µM.

`O=C(O)c1cn(-c2cnccn2)c2cc(N3CCCCC3COc3ccccn3)c(Cl)cc2c1=O` (stereo not shown) [Compound 211, 6-Chloro-4-oxo-1-(pyrazin-2-yl)-7-{2-[(pyridin-2-yloxy)methyl]piperidin-1-yl}quinoline-3-carboxylic acid]: the IC50 lay in the range of 1 to 10 µM.

Consider `CN(C)C1CN(c2ccc(-n3cc(C(=O)O)c(=O)c4cc(Cl)c(N5CC6(CCC6)CC5COc5ncccc5Cl)cc43)cn2)C1` (stereo not shown) [Compound 226, 6-Chloro-7-(7-(((3-chloropyridin-2-yl)oxy)methyl)-6-azaspiro [3.4]octan-6-yl)-1-(6-(3-(dimethyl-amino)azetidin-1-yl)pyridin-3-yl)-4-oxo-1,4-dihydro-quinoline-3-carboxylic acid compound with formic acid (1:1)], for which the IC50 was not above 1 µM. Still for that read-out and setting: then `O=C(O)c1cn(-c2ccc(O)c(F)c2)c2cc(N3CCC[C@@H]3COc3ncccc3Cl)c(Cl)cc2c1=O` [Compound 127, (R)-6-chloro-7-(2-(((3-chloropyridin-2-yl)oxy)methyl)pyrrolidin-1-yl)-1-(3-fluoro-4-hydroxy-phenyl)-4-oxo-1,4-dihydro-quinoline-3-carboxylic acid], with not above 1 µM; and `CN(C)C1CN(c2ccc(-n3cc(C(=O)O)c(=O)c4cc(Cl)c(N5CCCC5)cc43)cn2)C1` [Compound 295, C6-chloro-1-(6-(3-(dimethyl-amino)azetidin-1-yl)pyridin-3-yl)-4-oxo-7-(pyrrolidin-1-yl)-1,4-dihydro-quinoline-3-carboxylic acid], with 1 to 10 µM; and `COc1ccc(F)c(OC[C@H]2C[C@H]3C[C@H]3N2c2cc3c(cc2Cl)c(=O)c(C(=O)O)cn3-c2ccnc(N)c2)n1` [Compound 342, 1-(2-Aminopyridin-4-yl)-6-chloro-7-[(1R,3R,5R)-3-{[(3-fluoro-6-methoxy-pyridin-2-yl)oxy]methyl}-2-azabicyclo [3.1.0]hexan-2-yl]-4-oxoquinoline-3-carboxylic acid], with not above 1 µM.

Still in this assay, the particulars now being: Lin28a-dependent Zcchc11 (Z11) TUTase assay; read-out: Potency Lin28a-dep Z11 IC50.
Consider `O=C(O)c1cn(-c2ccc(N3CCC3)nc2)c2cc(N3CCC[C@@H]3COc3ncccc3Cl)c(Cl)cc2c1=O` [Example 422, (R)-1-(6-(azetidin-1-yl)pyridin-3-yl)-6-chloro-7-(2-(((3-chloropyridin-2-yl)oxy)methyl)pyrrolidin-1-yl)-4-oxo-1,4-dihydroquinoline-3-carboxylic acid], for which the IC50 is not above 1 µM. Still for that read-out and setting: in the case of `O=C(O)c1cn(-c2cnc3[nH]ncc3c2)c2cc(N3CCC[C@@H]3COc3ncccc3Cl)c(Cl)cc2c1=O` [Example 475, (R)-6-chloro-7-(2-(((3-chloropyridin-2-yl)oxy)methyl)pyrrolidin-1-yl)-4-oxo-1-(1H-pyrazolo[3,4-b]pyridin-5-yl)-1,4-dihydroquinoline-3-carboxylic acid] it was not above 1 µM; in that of `CN(C)C1CN(c2ccc(-n3cc(C(=O)O)c(=O)c4cc(Cl)c(N5CCC[C@@H]5CCc5ccccn5)cc43)cn2)C1` [Example 578, (R)-6-chloro-1-(6-(3-(dimethylamino)azetidin-1-yl)pyridin-3-yl)-4-oxo-7-(2-(2-(pyridin-2-yl)ethyl)pyrrolidin-1-yl)-1,4-dihydroquinoline-3-carboxylic acid], 1 to 10 µM.

Turning to `NC1CC(n2cc(C(=O)O)c(=O)c3cc(Cl)c(N4CCC[C@@H]4COc4ncccc4Cl)cc32)C1` (stereo partly drawn) [Example 471, (R)-1-(3-aminocyclobutyl)-6-chloro-7-(2-(((3-chloropyridin-2-yl)oxy)methyl)pyrrolidin-1-yl)-4-oxo-1,4-dihydroquinoline-3-carboxylic acid], the IC50 lay within 1 to 10 µM. Same read-out and setting: in the case of `Cc1cccnc1OC[C@H]1CCCN1c1cc2c(cc1Br)c(=O)c(C(=O)O)cn2C1(C)CC1` [Example 365, 6-Bromo-1-(1-methylcyclo-propyl)-7-[(2R)-2-{[(3-methyl-pyridin-2-yl)oxy]methyl}pyrrolidin-1-yl]-4-oxo-1,4-dihydroquinoline-3-carboxylic acid] it was 1 to 10 µM; in that of `O=C(O)c1cn(-c2cnc3cc[nH]c3n2)c2cc(N3CCC[C@@H]3COc3ncccc3Cl)c(Cl)cc2c1=O` [Example 530, (R)-6-chloro-7-(2-(((3-chloropyridin-2-yl)oxy)methyl)pyrrolidin-1-yl)-4-oxo-1-(5H-pyrrolo[2,3-b]pyrazin-3-yl)-1,4-dihydroquinoline-3-carboxylic acid], not above 1 µM.

On to `O=C(O)c1cn(-c2cnn(CCN3CCC3)c2)c2cc(N3CCC[C@@H]3COc3ncccc3Cl)c(Cl)cc2c1=O` [Example 479, (R)-1-(1-(2-(azetidin-1-yl)ethyl)-1H-pyrazol-4-yl)-6-chloro-7-(2-(((3-chloropyridin-2-yl)oxy)methyl)pyrrolidin-1-yl)-4-oxo-1,4-dihydroquinoline-3-carboxylic acid], for which the half-maximal inhibitory concentration (IC50) was not above 1 µM. In the case of `COc1cnc(OC[C@H]2CC3CC3N2c2cc3c(cc2Cl)c(=O)c(C(=O)O)cn3-c2ccnc(N)c2)c(Cl)c1` (stereo partly drawn) [Example 653, 1-(2-aminopyridin-4-yl)-6-chloro-7-((3R)-3-(((3-chloro-5-methoxypyridin-2-yl)oxy)methyl)-2-azabicyclo[3.1.0]hexan-2-yl)-4-oxo-1,4-dihydroquinoline-3-carboxylic acid], the 50% inhibitory concentration (IC50) is not above 1 µM.
